Structures can show the parent of a compound that is named as a salt.
Tests used:
Stress Induced Ulcer = test: Effect on stress induced ulcer (water-immersion restraint stress, method of Takagi et al.); assay type: in vivo, Male rats of Sprague Dawley (SD) strain; details: oral, 100 mg/kg in 1% CMC, given 15 min before 18 h water immersion at 24°C; for Ulcer inhibition rate (%): relative to group without test compound; for Ulcer index (mm): total major axis of ulcers per animal, control 94.4 ± 25.1
Description: Test Method 1 (Effect on Stress Induced Ulcer) The method of Takagi et al. (Jap. J. Pharmacol., 18, 9 ([…])) was followed. Male rats of Sprague Dawley (SD) strain each weighing from 180 to 200 g (8 weeks old and 6 to 8 rats in one group) were fasted for 24 hours, followed by oral administration of the above test compounds which had been suspended in 1% CMC aqueous solution. Fifteen minutes later, the animals were placed in a stress cage which was then immersed in a water bath at 24°C at the depth of the […] of the animals. After being immersed for 18 hours, the animals were sacrificed under etherization to remove the stomachs. Each of the stomachs was injected with 12 ml of 1% formaldehyde solution and then immersed in a 1% formaldehyde solution for 15 minutes. The stomach was incised along its greater curvature and examined for the gastric lesions under a stereomicroscope for the major axis (mm) of each ulcer that had developed on the gastric mucous membrane. The total major axis (mm) per animal was taken as the ulcer index of the animal. The ulcer inhibition rate was calculated from the following equation. The ED50 value was obtained from the dose-ulcer inhibition rate curve. Ulcer inhibition rate (%) = (1 - ? ) x 100 (wherein l is the ulcer index of a group without the test compounds administered, and m is the ulcer index of a group having such compounds administered).

Male mice of ddY strain = test: Acute toxicity - minimum lethal dose (MLD); assay type: in vivo; details: oral administration in 1% CMC, fasted overnight, observation over 7 days
From the text: Test Method 2 (Acute Toxicity - Minimum Lethal Dose (MLD))
Male mice of ddY strain each weighing from 20 to 22 g (4 weeks old and 5 mice in one group) were fasted overnight, followed by oral administration of the test compounds which had been suspended in 1% CMC aqueous solution. Observation was made over 7 days to determine the minimum lethal dose (MLD).

Structure (SMILES) | Ulcer inhibition rate (%) (Stress Induced Ulcer) | Ulcer index (mm) (Stress Induced Ulcer) | minimum lethal dose (MLD) (Male mice of ddY strain)
Cc1ccc(NC(=O)c2ccc(CNC(=N)N)cc2)cc1.Cl [A, N-(4ʹ-methylphenyl)-4-guanidinomethylbenzamide hydrochloride] | 90.3% | 9.2 ± 3.4 mm | –
Cl.N=C(N)NCc1ccc(C(=O)Nc2ccc(Cl)cc2)cc1 [B, N-(4ʹ-chlorophenyl)-4-guanidinomethylbenzamide hydrochloride] | 80.5% | 18.4 ± 8.8 mm | –
CCOC(=O)c1ccccc1NC(=O)c1ccc(CNC(=N)N)cc1.Cl [C, N-(2ʹ-ethoxycarbonylphenyl)-4-guanidinomethylbenzamide hydrochloride] | 84.1% | 15.0 ± 14.7 mm | –
COc1ccccc1NC(=O)c1ccc(CNC(=N)N)cc1.Cl [Compound D, N-(2ʹ-methoxyphenyl)-4-guanidinomethylbenzamide hydrochloride] | 74.8% | 23.8 ± 14.9 mm | –
N=C(N)NC[C@H]1CC[C@H](C(=O)Nc2ccccc2)CC1 [E, N-(phenyl)-trans-4-guanidinomethyl-cyclohexanecarboximide hydrochloride, reference compound] | 35.0% | 61.4 ± 14.0 mm | ≤ 1,000 mg/kg

— patent EP0268267A2, “Guanidinomethylbenzoic acid derivatives, compositions containing the same, processes for preparing the same, and the use of the same in the manufacture of medicaments of therapeutic value” (NIPPON HYPOX LABORATORIES INCORPORATED, priority 1986, dated 1988)
